Laboratory results taken from ChEMBL document CHEMBL6115036, “Exploration of membrane-active cephalosporin derivatives as potent antibacterial agents against Staphylococcus aureus biofilms and persisters” (Eur J Med Chem, 2025).
≈ marks a conversion by molar mass, not a printed value. Calls of active or inactive are those of the source. The rule behind the calls is not given here.

How the values were obtained:
[1] = system: Staphylococcus aureus; assay: Antibacterial activity against Staphylococcus aureus infected in Kunming mouse model of subcutaneous abscess assessed as reduction in bacterial load in skin tissue at 10 mg/kg, sc measured after 48 hrs relative to control; format: functional; design: scale not given: the % may be the effect or the level left
[2] = system: Enterococcus faecalis; assay: Antimicrobial activity against Enterococcus faecalis incubated for 16 to 18 hrs by broth dilution assay; format: functional; settings: time 16-18 hrs
[3] = system: Staphylococcus aureus; assay: Antimicrobial activity against Staphylococcus aureus incubated for 16 to 18 hrs by broth dilution assay; format: functional; settings: time 16-18 hrs
[4] = system: Stenotrophomonas maltophilia; assay: Antimicrobial activity against Stenotrophomonas maltophilia incubated for 16 to 18 hrs by broth dilution assay; format: functional; settings: time 16-18 hrs
[5] = system: Escherichia coli; assay: Antimicrobial activity against Escherichia coli incubated for 16 to 18 hrs by broth dilution assay; format: functional; settings: time 16-18 hrs
[6] = Hemolytic activity in sheep red blood cells incubated for 1 hr; format: toxicity, cell-based, Ovis aries, Erythrocyte
[7] = system: Staphylococcus aureus; assay: Disruption of cell membrane in Staphylococcus aureus assessed as nucleic acid leakage at 32 ug/ml measured after 2 hrs by fluorescence based analysis; format: functional, organism-based; settings: dose 32.0 µg/ml
[8] = system: Staphylococcus aureus; assay: Disruption of cell membrane in Staphylococcus aureus assessed as protein leakage at 32 ug/ml measured after 2 hrs by fluorescence based analysis; format: functional, organism-based; settings: dose 32.0 µg/ml
[9] = system: Staphylococcus aureus; assay: Antibacterial activity against Staphylococcus aureus in presence of 50% sheep plasma; format: functional, organism-based
[10] = system: Staphylococcus aureus; assay: Antibacterial activity against Staphylococcus aureus in presence of 50% FBS; format: functional, organism-based
[11] = system: Staphylococcus aureus; assay: Bactericidal activity against Staphylococcus aureus measured for 3 to 6 hrs in presence of 50% sheep plasma; format: functional, organism-based; settings: time 3-6 hrs
[12] = system: Staphylococcus aureus; assay: Induction of resistance development in Staphylococcus aureus at sub-MIC measured after 20 passages; format: functional, organism-based
[13] = system: Staphylococcus aureus; assay: Induction of resistance development in drug-resistant Staphylococcus aureus at sub-MIC measured after 20 passages in presence of norfloxacin; format: functional, organism-based
[14] = system: Staphylococcus aureus; assay: Induction of resistance development in drug-resistant Staphylococcus aureus at sub-MIC measured after 20 passages in presence of ciprofloxacin; format: functional, organism-based
[15] = system: Staphylococcus aureus; assay: Induction of resistance development in drug-resistant Staphylococcus aureus at sub-MIC measured after 20 passages in presence of levofloxacin; format: functional, organism-based
[16] = system: Staphylococcus aureus; assay: Induction of resistance development in drug-resistant Staphylococcus aureus at sub-MIC measured after 20 passages in presence of linezolid; format: functional, organism-based
[17] = system: Staphylococcus aureus; assay: Induction of resistance development in drug-resistant Staphylococcus aureus at sub-MIC measured after 20 passages in presence of rifampicin; format: functional, organism-based
[18] = system: Staphylococcus aureus; assay: Induction of resistance development in drug-resistant Staphylococcus aureus at sub-MIC measured after 20 passages in presence of vancomycin; format: functional, organism-based
[19] = system: Staphylococcus aureus; assay: Induction of resistance development in drug-resistant Staphylococcus aureus at sub-MIC measured after 20 passages in presence of cefuroxime sodium; format: functional, organism-based
[20] = system: Staphylococcus aureus; assay: Induction of resistance development in drug-resistant Staphylococcus aureus at sub-MIC measured after 20 passages in presence of ampicillin sodium; format: functional, organism-based
[21] = system: Staphylococcus aureus; assay: Induction of intracellular ROS accumulation in Staphylococcus aureus at 1 to 4 times MIC incubated overnight by DCFH-DA dye based analysis; format: functional, organism-based
[22] = system: Staphylococcus aureus; assay: Antibacterial activity against Staphylococcus aureus assessed as effect on quiescent cells at 100 to 200 times MIC incubated for 24 hrs; format: functional, organism-based
[23] = system: Staphylococcus aureus; assay: Antibacterial activity against rifampicin-induced persistant Staphylococcus aureus assessed as decrease in CFU at 100 times MIC measured for 10 hrs; format: functional, organism-based
[24] = system: Staphylococcus aureus; assay: Inhibition of biofilm formation in Staphylococcus aureus assessed as decrease in bacterial count at 32 times MIC incubated for 24 hrs by CLSM analysis; format: functional, organism-based
[25] = system: Staphylococcus aureus; assay: Antibacterial activity against Staphylococcus aureus infected in Kunming mouse model of subcutaneous abscess assessed as bacterial count in skin tissue at 10 mg/kg, sc measured after 48 hrs; format: functional

Question: Which Activity [1] does the source give for CC(=O)OCC1=C(C(=O)O)N2C(=O)[C@@H](NC(=O)Cc3cccs3)[C@H]2SC1 [CEPHALOTHIN] here?
Answer: 54%

Question: What about the MIC [2] of the same molecule?
Answer: 32 µg/mL (≈ 80.7 µM)

Question: What about the MIC [3] of the same molecule?
Answer: 0.25 µg/mL (≈ 0.631 µM)

Question: What about the MIC [4] of the same molecule?
Answer: 16 µg/mL (≈ 40.4 µM)

Question: What about the MIC [5] of the same molecule?
Answer: 16 µg/mL (≈ 40.4 µM)

Question: And the HC50 at 1 h [6]?
Answer: > 1280 µg/mL

Question: And the Activity [7]?
Answer: inactive

Question: And the Activity [8]?
Answer: inactive

Question: And the Activity [9]?
Answer: Active; Mic Value Of Compound In Plasma Was Equal To Mic In Mhb Medium

Question: And the Activity [10]?
Answer: Active; Mic Value Of Compound In Serum Was Equal To Mic In Mhb Medium

Question: And the Activity [11]?
Answer: Active

Question: What about the Activity [12] of the same molecule?
Answer: inactive

Question: What about the Activity [13] of the same molecule?
Answer: inactive

Question: What about the Activity [14] of the same molecule?
Answer: inactive

Question: What about the Activity [15] of the same molecule?
Answer: inactive

Question: And the Activity [16]?
Answer: inactive

Question: What about the Activity [17] of the same molecule?
Answer: inactive

Question: What about the Activity [18] of the same molecule?
Answer: inactive

Question: And the Activity [19]?
Answer: inactive

Question: And the Activity [20]?
Answer: inactive

Question: What about the Activity [21] of the same molecule?
Answer: inactive

Question: What about the Activity [22] of the same molecule?
Answer: inactive

Question: What about the Activity [23] of the same molecule?
Answer: inactive

Question: And the inhibition [24]?
Answer: inactive

Question: What about the Activity [25] of the same molecule?
Answer: ~2 10^7CFU/ml
